These results are taken from article PMC8623273, “Novel N7-Arylmethyl Substituted Dinucleotide mRNA 5′ cap Analogs: Synthesis and Evaluation as Modulators of Translation” (Pharmaceutics, 2021).

Data set [1] has as its target eukaryotic translation initiation factor 4E (eIF4E) (Mus musculus, UniProt P63073). Put plainly: pyrene-probe fluorescent competitive-binding assay (PyFLINT-B) for cap analog-eIF4E. The settings on record: for EC50: Table S2; for Kd: pyrene-based high-throughput competition assay, 30 °C, KD calculated from EC50, read-out: KD Cap-eIF4E ± SD; for effect of the N7 substituent on eIF4E binding (in words): compared to m^7GpppG / 1a or unmodified counterpart. From the text:
High affinity for eIF4E is a desirable feature of cap analogs designed for modulating translation, either as small molecules or as a part of mRNA. Thus, we studied how different substituents at the N7-position affected eIF4E-cap interaction. To this end, we first determined the affinity of m^7GpppG and Bn^7GpppG (1a) using time-synchronized fluorescence quenching titration, a very precise and well-established, but low-throughput method. Next, to evaluate the whole set of the synthesized compounds (1a–1r), we used a high-throughput competitive-binding assay based on a pyrene-labeled fluorescent probe. From this assay we determined relative affinities of the compounds represented by half-effective concentrations (EC50) (Figure 3A–C), which were then used to calculate dissociation constant (KD) values for cap analog–eIF4E complexes using previously reported equations (Table 2, Figure 3D).
To determine the dissociation constants of the library of N7-benzylated dinucleotide 5′ cap analogs for translation initiation factor 4E, a fluorescent competitive-binding assay (PyFLINT-B) was applied as previously described. The experiments were performed on a Synergy™ H1 plate reader in 96-well, black, non-binding assay plates. Each well contained an appropriate buffer (50 mM Hepes/KOH pH 7.2, 100 mM KCl and 0.5 mM EDTA), pyrene probe m^7Gp5C4Py (10 nM), substrate (in half-logarithmic dilutions from 850 μM to 0.03 μM for compound 1m and from 100 μM to 0.003 μM for m^7GpppG and the rest of the compounds) and protein eIF4E (75 nM). The m^7Gp5C4Py was synthesized as describer earlier. The pyrene probe was dissolved in water and concentration was determined spectrometrically at 345 nm using the extinction coefficient (21,000 M^−1 cm^−1). The eIF4E protein was centrifuged after defrosting (5 min, 4 °C, 10k rcf) and its concentration was determined spectrometrically at 280 nm using the extinction coefficient (52,940 M^−1 cm^−1). The reaction mixtures were preincubated (15 min, 300 rpm, 30 °C). All measurements were performed at 30 °C and the fluorescence detection at 345 nm excitation and 378 nm emission was recorded.
To determine EC50 values, GraphPad Prism 9.1.2 software was used. To fit the curves to the obtained data we used the following formula:(1) Y=Bottom+ Top−Bottom/1+ X/EC50 where: X, cap analog (ligand) concentration; EC50, concentration of the cap analog resulting in half-maximal response from the fluorescent probe–protein complex; Bottom, minimal signal from the negative control, which contains only the free probe; Top, maximal signal from the positive control, the mixture of the protein and the fluorescent probe.
The dissociation constants KD were then calculated using the equation described by Nikolovska-Coleska et al.:(2) KD=EC50−Pt+PL50KD_probe/L50+1/L50/KD_probe+P0/KD_probe+1 where: EC50, concentration of the cap analog resulting in half-maximal response from the fluorescent probe–protein complex; [Pt], total protein concentration; [PL]50, concentration of the probe–protein complex at 50% inhibition; KD_probe, dissociation constant of the complex between the fluorescent probe and the protein; [L]50, probe concentration at 50% inhibition; [P]0, free protein concentration at 0% inhibition.

The target in another data set is eIF4E (Mus musculus, UniProt P63073). The data set can be described thus: fluorescence anisotropy (FA) competition assay with eIF4E. In kind it is binding. The settings on record: Table S2; for EC50: 25 °C, probe m^7GTP-triazol-FAM 10 nM, eIF4E 100 nM; for Kd: calculated from EC50. The source says:
The KD values determined from the high-throughput assay were in qualitative agreement with data from time-synchronized fluorescence quenching titration, justifying the use of the former for evaluation of the whole set of caps. […] To additionally verify the binding affinity data (especially for 1q and 1r, as mentioned above), we determined the binding affinities for all analogs using another independent assay, based on fluorescence anisotropy. The KD data determined by this method correlated very well with the results reported above (Table S2, Figure S2).
Fractions of the compounds were independently tested using a different method based on fluorescence anisotropy (FA). These experiments were performed on a Synergy™ H1 plate reader in 96-well, black, non-binding assay plates. Each well contained appropriate buffer (50 mM HEPES/KOH pH 7.2, 100 mM KCl, 0.5 mM EDTA i 1 mM DTT), the fluorescent probe m^7GTP-triazol-FAM (10 nM), substrate (in a 2.08-fold dilution, starting from 60 μM) and protein eIF4E (100 nM). The m^7GTP-triazol-FAM was synthesized as describer earlier. All measurements were performed at 25 °C. Determined EC50 values were means ± SD of three independent experiments. The dissociation constants KD were then calculated using the equation described by Nikolovska-Coleska as described earlier.

A further data set has as its target T1, hDcpS (Homo sapiens, UniProt Q96C86).
T1 sequence (Q96C86 1-337): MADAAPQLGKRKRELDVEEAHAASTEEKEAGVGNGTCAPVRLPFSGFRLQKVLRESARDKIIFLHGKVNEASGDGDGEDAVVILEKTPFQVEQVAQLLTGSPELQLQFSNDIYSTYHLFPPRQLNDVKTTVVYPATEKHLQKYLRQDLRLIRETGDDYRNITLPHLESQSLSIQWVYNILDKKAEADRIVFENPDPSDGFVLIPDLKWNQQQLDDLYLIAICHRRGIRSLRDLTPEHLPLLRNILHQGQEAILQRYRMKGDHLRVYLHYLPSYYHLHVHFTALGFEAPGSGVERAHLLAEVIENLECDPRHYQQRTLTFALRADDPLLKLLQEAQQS
It counts as in vitro ADME. The settings on record: 100 μM compound, 20 nM hDcpS; for hDcpS Assay: fraction of the cap remaining after 1 h incubation with DcpS: 37 °C. As to the method: Susceptibility to decapping scavenger (DcpS) is one of the factors that could potentially influence the cellular stability of mono- and dinucleotide cap analogs designed as translational inhibitors. Therefore, we studied the susceptibility of arylmethyl-modified dinucleotides to DcpS. The compounds (at 100 μM concentration each) were incubated with 20 nM of hDcpS, and the hydrolysis progress at different time points was analyzed via RP HPLC and compared to m^7GpppG (Figure 4 and Figure S3).
The enzymatic activity of DcpS was assayed at 37 °C in 50 mM Tris∙HCl, pH 7.6 containing 200 mM KCl, 0.5 mM EDTA. DcpS cleavage assays were carried out with 100 μM of the tested compound and 20 nM (monomer) of the hDcpS. Enzymatic reaction progress was examined after 30, 60 and 180 min. As a control, a sample was examined before adding enzyme. Aliquots of 15 μL were terminated by heat inactivation of the enzyme for 3 min at 98 °C. The samples were analyzed via RP HPLC equipped with a Supelcosil LC-18-T column (4.6 × 250 mm, 5 μm, flow rate 1.3 mL/min).

For data set [2], the system named is cap-dependent translation in rabbit reticulocyte lysate (RRL). The data set can be described thus: inhibition of cap-dependent translation in rabbit reticulocyte lysate (RRL). The settings on record: RRL, cap analog and mRNA added at the same time (no pre-incubation), 60 min, 30 °C; read-out: Translation Inhibition IC50. In kind it is biochemical. As to the method:
After determining the affinity for eIF4E and susceptibility to DcpS, we evaluated the analogs as inhibitors of protein translation in rabbit reticulocyte lysates (RRL). To enable better assessment of how these two factors influenced inhibitory properties, we performed two sets of experiments. In the first set, cap analogs were added to RRL along with luciferase-encoding reporter mRNA followed by a protein activity (luminescence) readout after 1 h, whereas in the second set cap analogs were additionally preincubated in RRL for 1 h prior to addition of mRNA. Based on previously reported findings, we expected that in the second experimental setup, cap analogs susceptible to DcpS would lose their inhibitory potency, whereas compounds resistant to DcpS would remain similarly active.
The ability of the N7-benzyl cap analogues to inhibit cap-dependent translation was assayed in a rabbit reticulocyte lysate (RRL) system. Two sets of experiments were performed. In both variants, in vitro translation reactions (10 μL total volume) contained a tested cap analog (inhibitor) and an in vitro transcribed, ARCA-capped mRNA encoding Gaussia luciferase at 1 μg/mL final concentration. In experimental variant A, cap analogues at concentrations in the range of 0 to 64 μM and mRNA were added to the reaction mixture at the same time. Reactions were incubated at 30 °C for 60 min and then stopped by freezing in liquid nitrogen. In experimental variant B, the cap analogues were added at concentrations in the range of 0 to 160 μM. Reactions were pre-incubated at 30 °C for 60 min prior to addition of mRNA; after addition of mRNA incubation was continuous at 30 °C for 60 min and then stopped by freezing in liquid nitrogen. To detect luminescence from Gaussia luciferase, 50 μL of 10 ng/mL h-coelenterazine (NanoLight, Norman, OK, USA) in PBS was added to 10 μL of RRL and the luminescence was measured with a Synergy H1 (BioTek, Winooski, VT, USA) microplate reader.

Structures are written as SMILES.

eukaryotic translation initiation factor 4E (eIF4E), sequence (P63073 whole entry): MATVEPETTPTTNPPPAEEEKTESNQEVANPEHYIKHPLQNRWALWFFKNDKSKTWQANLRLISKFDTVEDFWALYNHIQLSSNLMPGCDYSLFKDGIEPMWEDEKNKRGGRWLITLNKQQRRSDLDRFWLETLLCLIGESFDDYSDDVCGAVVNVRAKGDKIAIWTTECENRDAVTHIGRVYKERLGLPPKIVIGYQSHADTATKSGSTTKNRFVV
eIF4E, sequence (P63073 whole entry): as above

As for `Nc1nc(O)c2c(n1)n([C@@H]1O[C@H](COP(=O)(O)OP(=O)([O-])OP(=O)(O)OC[C@H]3O[C@@H](n4cnc5c(=O)[nH]c(N)nc54)[C@H](O)[C@@H]3O)[C@@H](O)[C@H]1O)c[n+]2Cc1ccc(F)cc1F` [1j, 2,4-di-F-Bn^7GpppG], in data set [1], the EC50 was 6900 nM and the Kd was 598 ± 87 nM. Also, at eIF4E, the EC50 stood at 870 ± 50 nM and the Kd is 298 ± 18 nM. At hDcpS, the “conversion after 1 h of incubation with hDcpS” value is listed as approximately 70% and the “hDcpS Assay: fraction of the cap remaining after 1 h incubation with DcpS” value was 0.70. In data set [2], the IC50 was 8400 ± 1500 nM.

On to `Cc1ccccc1C[n+]1cn([C@@H]2O[C@H](COP(=O)(O)OP(=O)([O-])OP(=O)(O)OC[C@H]3O[C@@H](n4cnc5c(=O)[nH]c(N)nc54)[C@H](O)[C@@H]3O)[C@@H](O)[C@H]2O)c2nc(N)nc(O)c21` [1b, 2-MeBn^7GpppG], for which, in data set [1], the “effect of the N7 substituent on eIF4E binding (in words)” value (from here on “effect of the N7 substituent”) was “decreased the binding affinity by eight-fold” and the Kd was 1910 ± 360 nM. Further, on eIF4E, the EC50 amounted to 3100 ± 100 nM and the Kd is 1120 nM. Besides, at hDcpS, the “susceptibility to hDcpS (in words)” value is recorded as “very slowly hydrolyzed” and the “hDcpS Assay: fraction of the cap remaining after 1 h incubation with DcpS” value is on record as 0.88. Further, the IC50 in data set [2] amounted to 154000 ± 88000 nM.

As for `Nc1nc(O)c2c(n1)n([C@@H]1O[C@H](COP(=O)(O)OP(=O)([O-])OP(=O)(O)OC[C@H]3O[C@@H](n4cnc5c(=O)[nH]c(N)nc54)[C@H](O)[C@@H]3O)[C@@H](O)[C@H]1O)c[n+]2Cc1ccc(C(=O)O)cc1` [1m, 4-COOH-Bn^7GpppG], in data set [1], the “effect of the N7 substituent” value was “completely disrupted the binding” and the Kd is more than 50000 nM. On hDcpS, the “susceptibility to hDcpS (in words)” value is listed as “Lower susceptibility to hydrolysis” and the “hDcpS Assay: fraction of the cap remaining after 1 h incubation with DcpS” value is listed as 0.93. Further, the half-maximal inhibitory concentration (IC50) in data set [2] was more than 500000 nM.

As to `Cc1cc(C)cc(C[n+]2cn([C@@H]3O[C@H](COP(=O)(O)OP(=O)([O-])OP(=O)(O)OC[C@H]4O[C@@H](n5cnc6c(=O)[nH]c(N)nc65)[C@H](O)[C@@H]4O)[C@@H](O)[C@H]3O)c3nc(N)nc(O)c32)c1` [1f, 3,5-di-MeBn^7GpppG], in data set [1], the EC50 was 7500 nM and the Kd was 646 ± 114 nM. Also, at eIF4E, the EC50 is 1100 ± 100 nM and the Kd was 384 ± 41 nM. Moreover, at hDcpS, the “susceptibility to hDcpS (in words)” value is listed as “Lower susceptibility to hydrolysis” and the “hDcpS Assay: fraction of the cap remaining after 1 h incubation with DcpS” value was found to be 0.95. In data set [2], the IC50 worked out at 13200 ± 2000 nM.

`Nc1nc(O)c2c(n1)n([C@@H]1O[C@H](COP(=O)(O)OP(=O)([O-])OP(=O)(O)OC[C@H]3O[C@@H](n4cnc5c(=O)[nH]c(N)nc54)[C@H](O)[C@@H]3O)[C@@H](O)[C@H]1O)c[n+]2Cc1cccc2ccccc12` [1o, α-Naphm^7GpppG]: in data set [1], the EC50 was determined as 35000 nM, the “effect of the N7 substituent” value was “disrupted the binding to a similar extent as 2-methylbenzyl” and the Kd was 3040 ± 490 nM. Also, at eIF4E, the EC50 was 2100 ± 100 nM and the Kd was 739 ± 49 nM. In addition, at hDcpS, the “susceptibility to hDcpS (in words)” value is recorded as “lower susceptibility to hDcpS than m^7GpppG” and the “hDcpS Assay: fraction of the cap remaining after 1 h incubation with DcpS” value was 0.97.

As for `Nc1nc(O)c2c(n1)n([C@@H]1O[C@H](COP(=O)(O)OP(=O)([O-])OP(=O)(O)OC[C@H]3O[C@@H](n4cnc5c(=O)[nH]c(N)nc54)[C@H](O)[C@@H]3O)[C@@H](O)[C@H]1O)c[n+]2Cc1ccc2ccccc2c1` [1p, β-Naphm^7GpppG], in data set [1], the EC50 is 12000 ± 600 nM, the “effect of the N7 substituent” value is on record as “disrupted the binding to a similar extent as 2-methylbenzyl” and the Kd is 1060 ± 190 nM. Also, on hDcpS, the “susceptibility to hDcpS (in words)” value is listed as “lower susceptibility to hDcpS than m^7GpppG” and the “hDcpS Assay: fraction of the cap remaining after 1 h incubation with DcpS” value is 0.84. Besides, the IC50 in data set [2] was found to be 15900 ± 3400 nM.

As usually defined, the EC50 is the concentration that produces a half-maximal response. The term Kd denotes the equilibrium constant for the complex coming apart. Broadly, the IC50 is the midpoint of a concentration-inhibition curve.
